We go through one molecule from patent US6383773B2, “Penicillin conversion” (Massachusetts Institute of Technology, priority 1998, dated 2002).

Assay [1] deals with T1, S. clavuligerus expandase (Streptomyces clavuligerus, UniProt P18548).
T1 construct: endogenous in cells; host or cells: S. clavuligerus mutant NP1, crude cell-free extract
In words: Penicillin ring expansion by cell-free S. clavuligerus expandase extracts, paper disc-agar diffusion bioassay. It is filed as biochemical. The following applies: 4 mg/ml extract protein. The method, then:
Preparation of Cell-free Extracts: Fermentation broths were centrifuged at 8,000×g and 4° C. for 10 min. Pellets were washed twice using 50 mM Tris-HCI supplemented with 0.1 mM dithiothreitol (DTT). The cells were resuspended in the same buffer and disrupted by four 25-sec. sonication treatments (power setting 5 and duty cycle 50%), in an ice-water bath using a Branson 350 sonifier (Branson Sonic Power Co., Danbury, Conn.). Cell debris was removed by centrifugation (14,000×g, 30 min., 4° C.). The resulting extracts containing 8-10 mg protein/ml were placed on ice and utilized immediately. Protein concentrations were measured using the Bio-Rad protein assay (Bio-Rad, Hercules, Calif.). Bovine serum albumin was used as standard.
Ring Expansion Reaction: We defined ring expansion reaction conditions as modifications of the standard reaction mixture for expandase reactions described by Maeda et al. (Maeda et al., Enzyme Microb. Technol. 17:231-34, 1995) except that penicillin G was used a substrate instead of penicillin N. Additions were made following the order established by Shen et al. (Shen et al., Enzyme Microb. Technol. 6:402-404, 1984. Reaction mixtures were incubated in test tubes (cell-free extract) or 250 ml baffled flasks (resting cells) at 220 rpm, 30° C. Reactions containing the protein extract were stopped at various times (see Table 1 and Figure Legends) by mixing 0.5 ml of assay solution with 0.5 ml of methanol. In the case of resting cells, samples were centrifuged to remove cells and supernatants were transferred to new tubes. Expandase activity was detected by paper disc-agar diffusion bioassay.
Detection of Expandase Activity: As mentioned above, expandase activity was detected by assaying production of a growth-inhibitory zone in a paper disc-agar diffusion bioassay. Paper discs were saturated with 200 μl of the reaction mixture (cell-free extracts or supernatant (resting cells) as follows. Two discs were superimposed and four 50 μl samples were applied. After each application, the discs were allowed to dry for 20 min at 37° C. under a laminar hood and, finally, they were placed on LB (1% tryptone, 0.5% NaCl, 0.5% yeast extract, 0.1% glucose) 0.8% agar medium seeded with E. coli ESS (a β-lactam supersensitive mutant), and the plates were incubated overnight at 37° C. The formation of DAOG and/or other cephalosporin(s) was determined by including 50,000 IU/ml of penicillinase (Difco Bacto penase concentrate, Difco Laboratories, Detroit, Mich.) in the assay plates. This penicillinase is a narrow spectrum β-lactamase that attacks penicillins but not cephalosporins. The diameters of zones of growth inhibition were measured and quantified with a calibration curve using DAOG as standard.
Ring Expansion of Other Penicillins by Cell-free Extracts: We tested our reaction conditions for their ability to support ring expansion on other penicillin substrates and found detectable expansion with each of the 15 substrates that we tested. […] The reactions contained 4 mg/ml extract (protein concentration), 50 mM Tris-HCl pH 7.4, 1.8 mM FeSO4, 1.28 mM α-ketoglutarate, 8 mM MgSO4, 8 mM KCl, 4 mM ascorbic acid, 14 mM DTT, and 2 mg/ml substrate (except for penicillin mX and octanoyl-6-APA, which were used at 3 mg/ml). Samples were centrifuged at 12K rpm for 5 minutes after 2 hours of reaction. 250 μl of reaction mixture was used in each bioassay.

For assay [2], the target named is T2, expandase from N. lactamdurans (Amycolatopsis lactamdurans, UniProt Q03047).
T2 construct: made in house; host or cells: S. lividans 1326 transformed with pUL702-202a, crude cell-free extract
T2 sequence (Q03047 whole entry): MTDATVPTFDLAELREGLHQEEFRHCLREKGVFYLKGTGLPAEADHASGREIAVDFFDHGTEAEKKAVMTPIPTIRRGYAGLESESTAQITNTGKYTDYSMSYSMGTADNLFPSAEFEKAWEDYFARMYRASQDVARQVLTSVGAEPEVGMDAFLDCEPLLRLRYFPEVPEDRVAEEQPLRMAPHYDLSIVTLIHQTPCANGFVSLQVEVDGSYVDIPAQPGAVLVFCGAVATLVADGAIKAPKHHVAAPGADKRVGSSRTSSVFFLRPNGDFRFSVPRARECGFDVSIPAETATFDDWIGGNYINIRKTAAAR
Kind of assay: Ring expansion by cell-free extracts of S. lividans containing pUL702-202a (Example 7). Type of assay: biochemical. Conditions: S. lividans pUL702-202a cell-free extract 6 mg/ml protein, substrate 5.6 mM. As to the method: (§1) Microorganism, Medium and Culture Conditions: S. lividans 1326 was used in all experiments. Cultures were grown in 250 ml baffled flasks containing 40 ml of MST medium. Each flask was inoculated with 50 μl of a spore suspension (prepared and stored at −80° C. in 20% glycerol) and incubated at 30° C., 250 rpm, for 48 h.
(§2) Plasmids: The plasmid pUL702-202a was a gift from J. F. Martin (University of León, Spain). This vector harboured a 4.3 Kb BglII fragment containing the epimerase and expandase genes from Nocardia lactamdurans inserted at the BglII site on pIJ702. The plasmid pHJ11 was constructed by cloning a 3 Kb BglII fragment containing the expandase gene from S. clavuligerus 3585 into pIJ702 at the BglII site.
(§3) Ring Expansion Reaction: The ring expansion mixture contained 1.8 mM FeSO4, 1.28 mM α-ketoglutarate, 6 mg/ml protein (cell-free extract), 8 mM KCl, 8 mM MgSO4, 14 mM DTT and 50 mM TrisHCl (pH 7.4) in a final volume of 2.5 ml. Substrate concentration was 5.6 mM. Additions were made following the order established by Shen et al. (Enzyme Microb. Technol. 6:402-404, 1984). Reaction mixtures were incubated in test tubes at 220 rpm, 30° C. At different times, 0.5 ml samples were taken and the reaction was stopped by adding 0.5 ml of methanol. […] Biotransformation activity was detected by paper disc-agar diffusion bioassay. […]

The target in assay [3] is T3, expandase from S. clavuligerus (Streptomyces clavuligerus, UniProt P18548).
T3 construct: made in house; host or cells: S. lividans 1326 transformed with pHJ11, crude cell-free extract
T3 sequence (P18548 whole entry): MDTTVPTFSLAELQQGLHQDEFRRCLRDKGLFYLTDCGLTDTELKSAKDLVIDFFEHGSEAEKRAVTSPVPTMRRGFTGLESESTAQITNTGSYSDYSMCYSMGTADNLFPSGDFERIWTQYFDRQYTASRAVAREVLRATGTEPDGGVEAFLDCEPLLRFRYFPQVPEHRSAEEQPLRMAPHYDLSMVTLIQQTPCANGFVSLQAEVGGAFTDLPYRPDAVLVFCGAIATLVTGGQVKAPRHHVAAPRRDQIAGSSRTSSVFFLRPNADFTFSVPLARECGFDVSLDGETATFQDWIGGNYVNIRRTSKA
Kind of assay: Ring expansion by cell-free extracts of S. lividans transformant pHJ11 (Example 7). Type of assay: biochemical. Conditions: pHJ11 cell-free extract 6 mg/ml protein, substrate 5.6 mM, after 4 h of reaction. As to the method: as §1, §2, §3

Assay [4] concerns the target T1, S. clavuligerus expandase. Conditions: literature reports (Jensen 1982; Dotzlaf 1989; Yeh 1994; Maeda 1995); cited from earlier work.
The target in the next assay is T4, C. acremonium expandase (Hapsidospora chrysogena, UniProt P11935).
T4 sequence (P11935 1-332): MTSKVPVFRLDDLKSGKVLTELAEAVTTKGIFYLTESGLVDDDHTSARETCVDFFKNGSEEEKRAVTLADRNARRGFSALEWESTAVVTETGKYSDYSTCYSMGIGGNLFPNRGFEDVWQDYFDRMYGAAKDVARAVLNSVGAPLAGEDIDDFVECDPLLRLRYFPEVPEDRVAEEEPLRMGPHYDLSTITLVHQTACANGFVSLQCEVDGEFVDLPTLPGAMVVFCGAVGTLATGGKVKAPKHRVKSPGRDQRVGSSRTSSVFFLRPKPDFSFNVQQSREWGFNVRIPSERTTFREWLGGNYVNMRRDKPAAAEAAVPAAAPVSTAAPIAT
Conditions: partially purified enzyme (Kupka et al. 1983); cited from earlier work.

T1 sequence (P18548 whole entry): as the sequence (P18548 whole entry) above

Regarding `CC1(C)S[C@@H]2[C@H](NC(=O)[C@H](N)c3ccccc3)C(=O)N2[C@H]1C(=O)O` [Ampicillin, ampicillin], the “Ring expansion, size of zones of inhibition” value in assay [1] (2 mg/ml substrate (penicillin mX and octanoyl-6-APA 3 mg/ml), 2 hours) is listed as “intermediate size zones”. Moreover, the “Inhibition Zone Diameter” value in assay [1] (2 mg/ml substrate, 2 hours of reaction, 250 μl in bioassay (E. coli ESS, penicillinase)) worked out at 17 mm. Moreover, the entries for the “ring expansion” value (in assay [2]; in assay [4]; at C. acremonium expandase) were “expansion was only observed when penicillin G was used as substrate”, “not” and “does not expand”, respectively. For the same molecule, the production of cephalosporins entry in assay [3] is recorded as “about 1.5 μg/ml”.
